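In this assay, cells in 96-well plates receive the compound at five concentrations for 48 hours. Endpoints are linearly interpolated between the surrounding concentrations. TGI marks complete inhibition of growth.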

Test systems include CCRF-CEM leukemia; EKVX NSCLC; IGROV1 ovarian; M14 melanoma; MALME-3M melanoma; MOLT-4 leukemia; NCI-H226 lung; NCI-H460 lung; NCI-H522 lung; OVCAR-4 ovarian; SF-539 CNS; SK-MEL-5 melanoma; SNB-19 CNS; SNB-75 CNS; UO-31 renal; UACC-257 melanoma; A498 renal.
What all share (assay): NCI-60 cell line screen, 48 h

On to `O=C1CC2(CCC3=C(O2)c2ccccc2NC(=O)C3)C(=O)c2ccccc2N1` (stereo not given), for which the TGI with CCRF-CEM leukemia, in the assay on EKVX NSCLC, in the assay with IGROV1 ovarian, with M14 melanoma, with MALME-3M melanoma and in the assay with MOLT-4 leukemia was over 100 µM each time. Further, the TGI in the assay with NCI-H226 lung, in the assay with NCI-H460 lung, in the assay on NCI-H522 lung, in the assay with OVCAR-4 ovarian, with SF-539 CNS and with SK-MEL-5 melanoma was over 100 µM throughout. Besides, the TGI in the assay on SNB-19 CNS, in the assay with SNB-75 CNS and in the assay on UO-31 renal was over 100 µM throughout.
Consider `O=C(c1nc2ccccc2[nH]c1=O)C(O)c1ccco1` (stereo not given), for which the TGI in the assay with CCRF-CEM leukemia, with EKVX NSCLC, in the assay with IGROV1 ovarian, in the assay with M14 melanoma, in the assay on MALME-3M melanoma and in the assay with MOLT-4 leukemia was over 100 µM in each case. Besides, the TGI with NCI-H226 lung, in the assay with NCI-H460 lung, in the assay on NCI-H522 lung, in the assay on OVCAR-4 ovarian, in the assay with SF-539 CNS and in the assay with SK-MEL-5 melanoma was over 100 µM each time. Moreover, the TGI in the assay with SNB-19 CNS, with SNB-75 CNS, in the assay with UACC-257 melanoma and in the assay with UO-31 renal was over 100 µM throughout.
Turning to `O=c1c2ccccc2nc2n1-c1ccccc1SC2`, the TGI in the assay with A498 renal, with CCRF-CEM leukemia, in the assay on EKVX NSCLC, in the assay on IGROV1 ovarian, in the assay on M14 melanoma and with MALME-3M melanoma was over 100 µM in each case. For the same molecule, the TGI with MOLT-4 leukemia was 75.3 µM; in the assay with NCI-H460 lung it was over 100 µM; in the assay with NCI-H522 lung, 70.8 µM; in the assay with OVCAR-4 ovarian, over 100 µM; in the assay with SF-539 CNS, over 100 µM; in the assay with SK-MEL-5 melanoma, 86.9 µM. Moreover, the TGI was over 100 µM in the assay on SNB-19 CNS, 56.2 µM in the assay with SNB-75 CNS, over 100 µM with UACC-257 melanoma and over 100 µM with UO-31 renal.
With `COc1ccc(Cc2c(=O)[nH]nc3ccccc23)cc1`, the TGI in the assay on A498 renal, in the assay on CCRF-CEM leukemia, with EKVX NSCLC, in the assay on IGROV1 ovarian, in the assay with M14 melanoma and in the assay on MALME-3M melanoma was over 100 µM each time. Further, the TGI in the assay with MOLT-4 leukemia, in the assay with NCI-H226 lung, with NCI-H460 lung, with OVCAR-4 ovarian, in the assay with SF-539 CNS and with SK-MEL-5 melanoma was over 100 µM throughout. The TGI in the assay on SNB-19 CNS, with SNB-75 CNS, in the assay on UACC-257 melanoma and in the assay with UO-31 renal was over 100 µM each time.
As for `C=CCN1COc2c(cc3c4c(cccc24)C(=O)O3)C1`, the TGI with A498 renal is 52.1 µM; in the assay with CCRF-CEM leukemia it was 44.8 µM; in the assay with EKVX NSCLC, 92 µM; with IGROV1 ovarian it was over 100 µM; in the assay with M14 melanoma, 50.1 µM; in the assay on MALME-3M melanoma, over 10 µM. For the same molecule, the TGI in the assay on MOLT-4 leukemia is 64.9 µM; in the assay with NCI-H226 lung it was over 100 µM; in the assay with NCI-H460 lung it was over 100 µM; in the assay with NCI-H522 lung, 28.4 µM; in the assay on OVCAR-4 ovarian it was over 100 µM; in the assay with SK-MEL-5 melanoma, over 100 µM. For the same molecule, the TGI was over 100 µM in the assay on SNB-19 CNS, 77.6 µM with SNB-75 CNS, 60.7 µM with UACC-257 melanoma and 40.8 µM in the assay on UO-31 renal.
On to `C/C(CC(=O)Nc1cc(C)ccc1C)=N/N=C(N)N`, for which the TGI with A498 renal, in the assay with CCRF-CEM leukemia, in the assay with EKVX NSCLC, with IGROV1 ovarian, in the assay on M14 melanoma and in the assay on MALME-3M melanoma was over 100 µM each time. Further, the TGI in the assay with MOLT-4 leukemia, with NCI-H226 lung, in the assay with NCI-H460 lung, with NCI-H522 lung, with SF-539 CNS and in the assay with SK-MEL-5 melanoma was over 100 µM each time. Besides, the TGI in the assay with SNB-75 CNS, in the assay on UACC-257 melanoma and with UO-31 renal was over 100 µM each time.
As to `O=C1C=CC2(C=C1)CCNC1=C2C(=O)c2ccccc2C1=O`, the TGI in the assay on A498 renal, in the assay on CCRF-CEM leukemia, in the assay on EKVX NSCLC, in the assay with IGROV1 ovarian, with M14 melanoma and with MALME-3M melanoma was over 100 µM in each case. The TGI in the assay on MOLT-4 leukemia, with NCI-H226 lung, in the assay with NCI-H460 lung, in the assay with NCI-H522 lung, in the assay with OVCAR-4 ovarian and in the assay on SF-539 CNS was over 100 µM in each case. Besides, the TGI in the assay on SK-MEL-5 melanoma, with SNB-75 CNS, in the assay on UACC-257 melanoma and in the assay on UO-31 renal was over 100 µM in each case.

(Values after PubChem BioAssay (NCI).)
